Assay results as given in patent publication US12050220B2, “Cell labeling agent and cell labeling kit” (University of Miyazaki, priority 2018, dated 2024).

Columns and labels:
HeLa cells = experiment: Fluorescence imaging of cells (metabolic labeling, FAM-tetrazine staining, confocal microscopy); format: cell-based
Protocol: BCN-ManNAc was added to the medium containing 1×10^5 HeLa cells and cultured for 72 hours. The medium used was DMEM (Dulbecco's Modified Eagle's Medium) containing 10% FBS (fetal bovine serum). The final concentrations of BCN-ManNAc added to the medium were 0, 2.5, 5, 10, 20, and 25 μM. After incubation, the medium was removed and the cells were washed three times with PBS. 3.7% paraformaldehyde was added and the cells were fixed for 20 min at room temperature. A final concentration of 1 μM FAM-tetrazine was added to the plate containing the fixed cells, and the cells were incubated for 20 min at room temperature. Fluorescence measurement was performed using a confocal microscopy (Leica TCS SP8, Leica Microsystems).

[1] = Confirmation of the reactivity of BCN-ManNAc in vitro (click reaction with FAM-tetrazine, fluorescence spectra); conditions: BCN-ManNAc 200 μM, FAM-tetrazine 1 μM, PBS; time-varying measurement up to 4000 s
Protocol: 2.0 mg of BCN-ManNAc was dissolved in 190 μL of DMSO and 20 mM of BCN-ManNAc solution was prepared. 1.0 mg of FAM-tetrazine was dissolved in 180 μL of DMSO and […] of FAM-tetrazine solution was prepared. 89 μL of phosphate-buffered saline (PBS) was prepared in a microtube, to which 1 μL of BCN-ManNAc solution and 10 μL of FAM-tetrazine solution were added, and the mixture was stirred well in a vortex mixer. The final concentrations of BCN-ManNAc and FAM-tetrazine in the mixture are 200 μM and 1 μM, respectively.
100 μL of the mixture was reacted at 37° C. for 1.5 hours. As a control, 100 μL of the sample of BCN-ManNAc 200 μM only was prepared. The fluorescence spectra of the mixture and control were measured using a spectrophotometer (JASCO FP-8200) (λex=492 nm, λem=517 nm). To evaluate the time dependence of the reaction of BCN-ManNAc and FAM-tetrazine, the fluorescence spectra of 100 μL of the mixture were measured up to 4000 s in the time-varying measurement mode.

acetylated BCN-modified mannosamine [BCN-ManNAc]
fluorescence of FAM in cells (HeLa cells; HeLa cells cultured 72 hours with 0, 2.5, 5, 10, 20, 25 μM, fixed, 1 μM FAM-tetrazine 20 min): increased in a concentration-dependent manner
fluorescence images of cells exposed to FAM-tetrazine (+) (HeLa cells; HeLa cells cultured in medium containing 25 μM, with FAM-tetrazine (+) vs without (−)): observed by fluorescence
time at which fluorescence intensity almost reached its maximum [1]: about 1800 s
